# pKd: −log10 of the molar value. Where a SMILES comes first, the peptide text is derived from it. Bridges are numbered along the chain shown (N, C = ends). [ ]: non-standard residue; d: D form. R8 = C=CCCCCCC[C@@](C)(N)C(=O)O; S5 = C=CCCC[C@](C)(N)C(=O)O
# Assays:
# NLRP3 inflammasome = experiment: IL-1β release from THP-1 cells stimulated with LPS and nigericin (ELISA); type: cell-based, human; conditions: 10, 50 and 100 μM peptide for 4 hours, then LPS 4 hours, nigericin 1 hour; Fig. 6
# Experimental: We next examined whether the ASC peptides could inhibit IL-1β production, which is regulated by the inflammasome. We used THP-1 human monocytic cells to study inflammasome activation as they express high levels of NLRP3, ASC, and pro-casp-1. THP-1 cells were incubated with ms_ASC^PYD #1–6 or ms_NLRP3^PYD peptides at increasing concentrations for 4 hours and were then stimulated with LPS for 4 hours, followed by the NLRP3 activator nigericin for 1 hour. IL-1β levels were measured in the culture supernatant. […] The ms_ASC^PYD peptides reduced IL-1β production from THP-1 cells in response to LPS/nigericin stimulation to variable degrees (Fig. 6A). […] We decided to continue investigating in detail the inhibitory effects of ms_ASC^PYD #5 and #6 peptides, as their estimated binding energies matched well with the experimental data of suppression of ASC-dependent IL-1 release in a dose-dependent manner. Since ms_ASCPYD #6 is the shorter version of ms_ASCPYD #5, this selection also enabled us to verify the effect of varying peptide lengths.
# Human monocytic THP-1 cells (1 × 10^7 cells) were plated in a 10-cm tissue culture dish and treated with PMA (200 nM) overnight to differentiate monocytic cells into macrophages. Cells were then washed and allowed to rest in fresh media for another day. For stimulation, differentiated THP-1 cells were trypsinized and seeded in 96-well plates (2 × 10^6/well). Peripheral blood mononuclear cells were isolated by Ficoll-Hypaque density gradient centrifugation from buffy coats obtained from anonymous donors provided by the National University Hospital Blood Bank, Singapore. Isolation of monocytes was performed using negative selection with the Monocyte Isolation Kit II (Miltenyi Biotech), following the manufacturer’s instructions. Monocytes were plated in tissue culture non-treated 96-well plates (2.5 × 10^5/well) in 250 µl RPMI 1640-Glutamax media supplemented with 3% human AB serum (Gemini Bio Products).
# THP-1 cells and monocytes were incubated with NLRP3^PYD (12.5–25–50 μM), ASC^PYD #5 (12.5-25-50-100 μM) or ASC^PYD #6 (12.5-25-50-100 μM) for the indicated durations. Cells were then washed once with PBS and primed with E. coli LPS (0.1 μg/ml, Invivogen) for 4 h followed by stimulation with nigericin (10 μM) for an additional 1 h or ATP ([…]) for an additional 30 min. The cell culture supernatants were then collected and centrifuged at 500 × g to remove cells and cellular debris.
# IL-1β levels were measured using antibodies from eBioscience (cat. #14-7018-81 and #13-7016-85), following the manufacturer’s instructions. IL-18 levels were measured using antibodies from MBL (D044-3 and D045-6) following the manufacturer’s instructions. The absorbance was measured at 450 nm with the reference wavelength at 570 nm, using an M200 Infinite plate reader (Tecan).
# [1] = Circular dichroism, percentage of helicity (K2D3); type: physicochemical; conditions: CD, room temperature, water, 100 μM peptide; estimated with K2D3
# Description: The conformation of helix 2 (^16TAEELKKFKLKLLSV^30) bound to ASC^PYD (Fig. 1A) was used as the starting structure for the peptide-protein interaction modeling. Following I,I + 7 stapling scheme, we inserted a hydrocarbon staple across positions 5 and 12 along the peptide and then introduced mutations to produce a set of stapled peptides. Two variants of the template peptide were designed – a short version containing 13 residues (ms_ASC^PYD #6) and a long version containing 15 residues (ms_ASC^PYD #1–5) with two additional residues at the N-terminus (Table 1). These two additional residues were inserted to increase the length of the peptide, thus potentially enabling sufficient conformational flexibility for the region involving the critical Arg3 to remain helical. A similar approach was taken to introduce the staple in the ms_NLRP3^PYD peptide. As determined from Circular Dichroism (CD) spectra, inserting the I,I + 7 staple had the intended effect of increasing helicity of the peptides (Fig. 3). […] Percentage of helicity was much higher for ASC^PYD stapled peptides #5 and #6, 95% and 70% respectively at 100 μM peptide concentration. Percentage of helicity for the peptides were estimated from the web server K2D3[36] using CD data.
# Figure 3 Circular dichroism (CD) spectra of (A) NLRP3^PYD and (B) ASC^PYD peptides to measure secondary structures.
# ASC PYD (Homo sapiens) = ASC PYD (Homo sapiens) (UniProt Q9ULZ3); experiment: NMR titration; conditions: cited from earlier work
Percentage of helicity [1],Compound,IL-1β release (in words) (NLRP3 inflammasome),pKd (ASC PYD (Homo sapiens))
,CC(=O)N[C@H](C(=O)N[C@@H](C)C(=O)N[C@@H](CCCNC(=N)N)C(=O)N[C@@H](CCC(=O)O)C(=O)N[C@]1(C)CCCCCCC=CCCC[C@@](C)(C(=O)N[C@@H](CCC(=O)O)C(=O)N[C@@H](CO)C(=O)N[C@H](C(N)=O)C(C)C)NC(=O)[C@H](CCCCN)NC(=O)[C@H](Cc2ccccc2)NC(=O)[C@H](CCCCN)NC(=O)[C@H](C)NC(=O)[C@H](CCCCN)NC(=O)[C@H](CCCCN)NC1=O)[C@@H](C)O [ms_ASC^PYD #2] (Ac-TARE[R8]KKAKFK[S5]ESV-NH2; staple 5-12),inability to suppress IL-1β release,
48%,CC(=O)N[C@H](C(=O)N[C@@H](CC(=O)O)C(=O)N[C@]1(C)CCCCCCC=CCCC[C@@](C)(C(=O)N[C@@H](CCC(=O)O)C(=O)N[C@@H](CC(=O)O)C(=O)N[C@@H](Cc2ccc(O)cc2)C(N)=O)NC(=O)[C@H](Cc2c[nH]cn2)NC(=O)[C@H](Cc2ccccc2)NC(=O)[C@H](CCCCN)NC(=O)[C@H](C)NC(=O)[C@H](CCCCN)NC(=O)[C@H](CCCCN)NC1=O)C(C)C [ms_NLRP3^PYD] (Ac-VD[R8]KKAKFH[S5]EDY-NH2; staple 3-10),produced less IL-1β in a dose-dependent manner,
,ASC PYD (from UniProt Q9ULZ3),,4.19
no helicity,Ac-VDLKKFKMHLEDY-NH2 [wt_NLRP3^PYD],,
